Values after ≈ are worked out from the molar mass of the structure shown. Values joined by “and” are separate entries in the source; they are usually repeats but may differ in a detail not shown here. Equal values may be shown once. “Also recorded” adds a separate entry of the source. Read-outs that look alike come from different tables or passages of the source.
Experiments:
[1] = Oxygen Radical Antioxidant Capacity (ORAC) assay; settings: for AUC: single antioxidant, 40 uM; for antioxidant activity/capacity compared to known standards (Trolox, vitamin C): 90 minutes at 37° C.
Excerpt: The ORAC assay measures the antioxidant capacity of biomolecules based on the oxidation of a fluorescein probe by peroxyl radicals (Fluorescence decreases as antioxidant capacity decreases).
The antioxidant properties of ammonium xanthommatin (referred to herein as “xanthommatin”) in an unsaturated solution were compared to known standard antioxidants. The results of the experiments are provided in FIGS. 1-3, illustrating the relative fluorescence value (RFU) over time (in seconds) for known antioxidants Trolox (a vitamin E analogue) and ascorbic acid compared to xanthommatin. Experiments were performed using 10, 20, and 40 μM Trolox, ascorbic acid, and ammonium xanthommatin (“Xa”) and compared to performance of 1:1 Trolox:Xa (20 μM: 20 μM and 40 μM: 40 μM) and 1:1 ascorbic acid:Xa (20 μM: 20 μM and 40 μM: 40 μM).
For antioxidant stabilizing/boosting experiments, the antioxidizing capacity and performance of ammonium xanthommatin only and ammonium xanthommatin blended with equimolar ascorbic acid (vitamin C) or Trolox (a vitamin E analogue) over 90 minutes at 37° C. were tested using a standard Oxygen Radical Antioxidant Capacity (ORAC) Assay. The ORAC assay measured the antioxidant capacity of biomolecules based on the oxidation of a fluorescein probe by peroxyl radicals (Fluorescence decreases as antioxidant capacity decreases). The ORAC assay is described in detail at https://www.cellbiolabs.com/sites/default/files/STA-345-orac-assay-kit.pdf, the contents of which are incorporated by reference herein. […] FIG. 19 provides half life measurements of ammonium xanthommatin in solution compared to vitamin C in solution when assayed at the same concentration. […] FIGS. 20 and 21, respectively, show the performance of vitamin C and vitamin E is extended when combined with ammonium xanthommatin.

[2] = UV-boosting properties: UV absorption of chemical UV filters alone and in combination; assay type: physicochemical; settings: for reduction of avobenzone UV-A performance: filter combined with avobenzone
Excerpt: FIGS. 9-11 show the UV absorption behavior of chemical UV filters octinoxate, avobenzone, and oxybenzone, alone, in combination with avobenzone, and in combination with xanthommatin small molecules in unsaturated solution (0.03 wt %).

[3] = system: BALB/c 3T3 mouse fibroblast cell lines; assay: in vitro 3T3 NRU phototoxicity assay; assay type: cell-based
Description: Given the UV filter-boosting features of xanthommatin, we next tested its cytotoxicity with and without exposure to a noncytotoxic dose of UVA light (from 315 to 400 nm and a measuring range between 0-199.9 mW/cm2). In these experiments, cytotoxicity was expressed as a concentration dependent reduction of a neutral red dye uptake within BALB/c 3T3 mouse fibroblast cell lines after treatment both with and without the presence of UVA exposure. […] Instead, the mean photo effect was calculated using Equation 5,
where, the photo effect (PE) at any concentration (C) is defined as the product of the response effect (REC) and the dose effect (DEC) concentrations. MPE values of 0.019, 0.199, and 0.042 were measured for the three independent experiments with xanthommatin. […] In this figure, the grey lines represent data collected in the absence of UVA (−UVA), and the black lines represent data collected with exposure to UVA (+UVA). Data was collected for three independent experiments.
Since the toxicological endpoint of this in vitro 3T3 NRU phototoxicity assay was developed and validated in a joint EU/COLIPA project, this assay is a well-recognized in vitro alternative to the various in vivo tests in use.

[4] = Absorbance of xanthommatin alone and with FDA approved organic UV filters, 280-500 nm; assay type: physicochemical; settings: 0.6 mM in DMSO
Description: The performance of ammonium xanthommatin was tested as a broad-spectrum absorber to assess whether the natural optical features of xanthommatin could be used to boost the UV performance of low (<0.2 mM) concentrations of organic UV filters. Xanthommatin's absorbance capabilities were tested alone in solution (FIG. 14) and in combination with FDA approved organic UV filters (FIGS. 15 and 16) over a spectral range of 280-500 nm. We observed a clear relationship between increasing concentrations of xanthommatin and the absorption of UV through visible light (FIG. 14). […] When xanthommatin was combined with the chemical UV filters, a significant increase in both the UVB (300 nm) and UVA (360 nm) range was achieved across all filters tested, where we observed at least a 50% increase in UVA and B performance upon addition with xanthommatin (FIG. 16).

[5] = UV-filter stabilizing properties: UV absorption of chemical UV filters with xanthommatin, day 1 and day 16; assay type: physicochemical; settings: xanthommatin at about 0.01 wt %
Excerpt: This boost in stability in the presence of unsaturated solutions of xanthommatin was consistent across all chemical filters tested, including homosalate, octisalate, octocrylene, oxybenzone, and octinoxate. Between 10-100% UV filtering retention was observed over the course of weeks. Solutions including unsaturated solutions of one or more phenoxazone and/or phenoxazine compound, a precursor or derivative thereof, or a salt of any of the foregoing (e.g., xanthommatin, a precursor or derivative thereof, or a salt of any one of the foregoing, such as ammonium xanthommatin) may also boost the stability of UV-filters in the presence of solar simulated light, or solar light.
The UV-filter stabilizing properties of unsaturated solutions of xanthommatin were explored by comparing the behavior of UV-filter stabilizers over time to UV-filter stabilizers in combination with xanthommatin. As shown in FIGS. 4-8, the addition of unsaturated solutions of xanthommatin to solutions including oxybenzone (FIGS. 4A and 4B), avobenzone (FIGS. 5A and 5B), octi and homo-salate (FIGS. 6A and 6B), octinoxate (FIGS. 7A and 7B) and octocrylene (FIGS. 8A and 8B) increased the UV absorption between about 240 and about 310 nm on day 1, relative to the chemical UV filters alone. […]

[6] = SPF and critical wavelength of xanthommatin in solution; assay type: physicochemical
Excerpt: In certain embodiments, the compositions of the present application provide sun protection. In certain embodiments, the compositions provide an SPF of at least about 15, 30, 60, 100, or other suitable amount of protection. In certain embodiments, the amount of phenoxazone and/or phenoxazine compound, a precursor or derivative thereof, or a salt of any of the foregoing (e.g., xanthommatin, a precursor or derivative thereof, or a salt of any one of the foregoing, such as ammonium xanthommatin) in the composition may be altered or adjusted in order to provide a particular SPF. In certain embodiments, the amount of UV-filtering material (e.g., a UV-absorbing compound or a UV-scattering particle) in the composition may be altered or adjusted in order to provide a particular SPF. […]
SPF was calculated using the derived Mansur equation (Sayre, R. M., et al., A comparison of in vivo and in vitro testing of sunscreening formulas. Photochemistry and Photobiology, 1979. 29(3): p. 559-566) according to Equation 1, SPF=CFΣ290^320EE(λ)I(λ)Abs(λ), where EE (λ) represents the erythemal effect spectrum; I(λ) is solar intensity spectrum; Abs(a) absorbance of UV-filter; CF is the correction factor (=10). […] The calculated SPF values were rounded to the nearest whole number. […]

[7] = avobenzone combinations, Xa 0.03 wt %

O=C1O[C@H]([C@@H](O)CO)C(O)=C1O [AA, ascorbic acid, reference compound]
AUC [1]: 55

COc1ccc(C(=O)c2ccccc2)c(O)c1 [Oxy control, oxybenzone]
reduction of avobenzone UV-A performance [2]: about 46%
UV absorption 290 nm ([2]; oxybenzone, Xa 0.03 wt %): 2
UV absorption 360 nm ([2]; oxybenzone, Xa 0.03 wt %): 0.31

Cc1c(C)c2c(c(C)c1O)CCC(C)(C(=O)O)O2 (centres unmarked) [Trolox, reference compound]
AUC [1]: 55

COc1ccc(C(=O)CC(=O)c2ccc(C(C)(C)C)cc2)cc1 [avo control, avobenzone]
UV absorption 300 nm [2, 7]: 0.31
UV absorption 360 nm [2, 7]: 1.49

CN(C)CCCN1c2ccccc2Sc2ccc(Cl)cc21 [chlorpromazine, reference compound]
EC50 ([3]; Mus musculus, BALB/c3T3, light or radiation study, +UVA, exp. 1, read-out: EC50): 0.221 µg/mL (≈ 0.693 µM)
PIF (photo-irritation-factor = EC50 (−UVA)/EC50(+UVA)) ([3]; exp. 1-3): 37.81 and 37.74 and 40.33

CCCCC(CC)COC(=O)C=Cc1ccc(OC)cc1 (centres unmarked) [octinox control, octinoxate]
reduction of avobenzone UV-A performance [2]: ~56%
UV absorption 310 nm ([2]; octinoxate, Xa 0.03 wt %): 2.53
UV absorption 360 nm ([2]; octinoxate, Xa 0.03 wt %): 0

NC(CC(=O)c1cccc2oc3cc(=O)c4[nH]c(C(=O)O)cc(=O)c4c-3nc12)C(=O)O (centres unmarked) [xanthommatin, Ammonium xanthommatin]
antioxidant activity/capacity compared to known standards (Trolox, vitamin C) [1]: comparable activity to vitamin c and vitamin e; also recorded: comparable anti-oxidizing capacity to known antioxidant standards
antioxidant activity/capacity compared to known standards (Trolox, vitamin C) ([1]; listed as ammonium xanthommatin): comparable antioxidizing capacity to known antioxidant standards
half life in solution compared to vitamin C ([1]; assayed at the same concentration): two times longer than vitamin C
relative fluorescence value (RFU) over time ([1]; compared to antioxidant alone, 10, 20, 40 μM): maintain a high RFU value for greater lengths of time
extension of the performance of vitamin C when combined with ammonium xanthommatin ([1]; equimolar blend): 23%
extension of the performance of vitamin E when combined with ammonium xanthommatin ([1]; equimolar blend): 9%
AUC [1]: 56
phototoxicity classification [3]: not phototoxic; also recorded: neither phototoxic nor a photoirritant
EC50 ([3]; −UVA): no EC50-value could be calculated
relative cell viability at the highest test item concentration ([3]; −UVA controls, three independent experiments): 88.5% and 99.3% and 100.6%
absorption profile compared to pure organic UV filters [4]: broader profile that spanned the UVB through visible light regions
effect on UV absorption and stability of chemical UV filters [5]: enhances the UV absorption properties of the chemical UV filters and stabilizes the chemical UV filters over time
boost of performance of avobenzone ([2]; xanthommatin at 0.03 wt %): up to 109%
enhancement of UVB absorbing power of octinoxate and oxybenzone ([2]; xanthommatin at 0.03 wt %, in some cases): more than 250%
boost of activity of avobenzone in UV-A (360 nm) ([2]; xanthommatin at about 0.03 wt %): about 9%
boost of activity/performance of avobenzone in UV-B (300 nm) ([2]; xanthommatin at about 0.03 wt %, or second filter): ~250%
critical wavelength [6]: 385 nm

— US20230381082A1, “PHOTOPROTECTIVE COSMETIC COMPOSITIONS COMPRISING XANTHOMMATIN AS AN ANTIOXIDANT AND UV-FILTER STABILIZER” (SEASPIRE, INC., priority 2020, published 2023)
